Measured values from ChEMBL document CHEMBL1156695, “The novel primaquine derivatives of N-alkyl, cycloalkyl or aryl urea: synthesis, cytostatic and antiviral activity evaluations” (Eur J Med Chem, 2008).
Active and inactive are the calls of the source. No cut-off for these calls is given here.

The compounds below were run on Vaccinia virus (assay: Antiviral activity against vaccinia virus infected in HEL cells assessed as reduction of virus-induced cytopathogenicity). Settings: Orthopoxvirus vaccinia.
Type: functional, organism-based

SMILES | Activity
CCN(CC)C(=O)NCCCC(C)Nc1cc(OC)cc2cccnc12 (stereo not given) | inactive
COc1cc(NC(C)CCCNC(=O)NCCc2ccccc2)c2ncccc2c1 (stereo not given) | inactive
COc1cc(NC(C)CCCNC(=O)n2nnc3ccccc32)c2ncccc2c1 (stereo not given) [PRIMAQUINE BENZOTRIAZOLIDE] | inactive
COc1cc(NC(C)CCCNC(=O)NCc2ccncc2)c2ncccc2c1 (stereo not given) | inactive
COc1cc(NC(C)CCCNC(=O)NCC2CCCCC2)c2ncccc2c1 (stereo not given) | inactive
COc1cc(NC(C)CCCNC(=O)NCc2ccccc2)c2ncccc2c1 (stereo not given) | inactive
COc1cc(NC(C)CCCNC(=O)N(C2CCCCC2)C2CCCCC2)c2ncccc2c1 (stereo not given) | inactive
COc1cc(NC(C)CCCNC(=O)NC2CCCCC2)c2ncccc2c1 (stereo not given) | inactive
COc1cc(NC(C)CCCNC(=O)NC2CCCC2)c2ncccc2c1 (stereo not given) | inactive
COc1cc(NC(C)CCCNC(=O)NC(c2ccccc2)c2ccccc2)c2ncccc2c1 (stereo not given) | inactive
